Assay results reported in US20100074939A1 (OsteoGeneX Inc., priority 2008, published 2010).
Where a name gives a salt, the structure may show the parent alone.

Key:
[1] = system: C57BL/6 mice; assay: Lumbar vertebra L5 bone volume by uCT, 30-day i.p. study; assay type: in vivo, mouse; settings: measured by uCT; male C57BL/6 mice, daily i.p. 30 days; dose not stated
Experimental: (§1) Four month old male C57BL/6 mice were treated daily with saline vehicle or the sclerostin inhibitor of harmine hydrochloride at 20 (“L”), 40 (“M”) or 90 (“H”) mg/kg (via i.p) for 30 days. Study endpoints included measurement of femur bone volume by pQCT analysis (FIG. 2), and a biochemical marker of bone formation, osteocalcin, measured by EIA Elisa (FIG. 3). […] Lumbar vertebra L5 bone volume increased 2% over saline baseline, as measured by uCT, and 73%, as measured by DEXA Piximus.

[2] = system: C57BL/6 mice; assay: Femur bone density/volume by pQCT, 30-day i.p. study (FIG. 2); assay type: in vivo, mouse; settings: male C57BL/6 mice, daily i.p. 30 days, 40 mg/kg
Experimental: as §1

[3] = system: Wnt pathway; assay: Wnt pathway modulation to promote bone growth (FIG. 1); settings: doses of 2.5 ng (low), 60 ng (medium), 125 ng (high)
Experimental: (§2) For example, the mouse test animal is treated with a predetermined dose of a SOST antagonist candidate for a complete dosing schedule. A control mouse is treated with a control solution, preferably a non-irritating buffer solution or other carrier. Once the dosing schedule has been completed, both test and control animals are examined with sacrifice using micro-CT to determine the quantity of bone formation present.

[4] = system: C57BL/6 mice; assay: Serum osteocalcin bone formation marker by EIA Elisa, 30-day i.p. study (FIG. 3); assay type: in vivo, mouse; settings: male C57BL/6 mice, 40 mg/kg daily i.p. 30 days
Experimental: as §1

[5] = system: mouse; assay: Bone formation in treated vs control mice by micro-CT (Example 1); assay type: in vivo; settings: test vs control solution, after complete dosing schedule
From the text: Compounds useful in the methods of the present invention can be identified via a variety of methods known to one of skill in the art. Several exemplary methods for identifying such antagonists are described herein, including cell-based and in vitro techniques (Journal of Bone and Mineral Research 2006, 21(11), 1738-1749). A general method of identifying SOST antagonists involves evaluating the effects of antagonist candidates on bone formation under controlled conditions. Preferably bone formation is determined using micro-CT techniques on live animals. Preferred animals include rodents, more preferred are primates. Femur, tibia and vertebrae bones are particularly useful subjects for such study.
Briefly, the test animal is treated with a predetermined dose of a SOST antagonist candidate. […]
Once the dosing schedule has been completed, both test and control animals are examined to determine the quantity of bone formation present. […] Where necessary, levels of bone formation can be calculated by determining the volume of bone formation present in each animal. […]
as §2, with “A control mouse is treated with a control solution, preferably a non-irritating buffer solution or other carrier.” left out

[6] = system: C57BL/6 mice; assay: Lumbar vertebra L5 bone volume by DEXA Piximus, 30-day i.p. study; assay type: in vivo, mouse; settings: measured by DEXA Piximus; male C57BL/6 mice, daily i.p. 30 days; dose not stated
Experimental: as §1

Compound: COc1ccc2c(c1)[nH]c1c(C)nccc12 [harmine hydrochloride]
- Lumbar vertebra L5 bone volume increase over saline baseline [1]: 2%
- increase over baseline for femur bone density [2]: 13%
- modulation of the Wnt pathway to promote bone growth [3]: modulating the Wnt pathway to promote bone growth
- percent increase in serum osteocalcin bone formation marker over saline controls [4]: 65%
- bone growth (quantity of bone formation by micro-CT) [5]: promoting bone growth
- Lumbar vertebra L5 bone volume increase over saline baseline [6]: 73%
